# Measurements reported in PMC8949187, “Study of Structure–Activity Relationships of the Marine Alkaloid Fascaplysin and Its Derivatives as Potent Anticancer Agents” (Marine Drugs, 2022).
# Columns and labels:
# HEK-293 cells = assay: MTT assay, HEK-293 cells; format: cell-based, human; settings: Homo sapiens, HEK293; non-cancer cells; 48 h of treatment; mean ± SD
# Experimental: (§1) The human prostate cancer cell lines PC-3, DU145, 22Rv1 and LNCaP, as well as human prostate non-cancer cell line PNT2 were purchased from ATCC (Manassas, VA, USA). HEK 293T (human embryonic kidney cells) and MRC-9 (human fibroblast cells) cell lines were purchased from ECACC (Salisbury, UK). […] Authentication of all cell lines used was recently performed by a commercial service (Multiplexion GmbH, Heidelberg, Germany).
# (§2) Cells were cultured as monolayers at 37 °C in a humidified atmosphere with 5% (v/v) CO2 in the correspondent culture medium: 10% FBS/RPMI medium (RPMI medium supplemented with Glutamax^TM-I (gibco® Life technologies^TM, Paisley, UK) containing 10% fetal bovine serum (FBS, gibco® Life technologies^TM) and 1% penicillin/streptomycin (Invitrogen)) for PNT2, LNCaP, 22Rv1, PC-3 and DU145 and cells; 10% FBS/DMEM medium (DMEM medium supplemented with Glutamax^TM-I (gibco® Life technologies^TM) containing 10% FBS and 1% penicillin/streptomycin (gibco® Life technologies^TM)) for MRC-9 and HEK 293 cells. Cells were continuously kept in culture for a maximum of 3 months, and were regularly checked for stable phenotype and mycoplasma infection.
# (§3) Effect of the drugs on cell viability in terms of metabolic activity was assessed by MTT assay, as previously reported. Cells were pre-incubated overnight in 96-well plates (6 × 10^3 cells/well in 100 μL/well) in the correspondent culture media. Then, the medium was replaced with fresh 10% FBS/RPMI medium containing the investigated compounds (100 μL/well), and cells were incubated for 48 h, unless otherwise stated. Next, 10 μL/well of (3-(4,5-dimethylthiazol-2-yl)-2,5-diphenyltetrazolium bromide) reagent (MTT, 5 mg/mL) was added. After 2–4 h of incubation, the media was aspirated and the plates were dried. Then, 50 μL/well of DMSO was added to each well and the cell viability was measured using an Infinite F200PRO reader (TECAN, Männedorf, Switzerland). Results were calculated using the GraphPad Prism software v.9.1.1 (GraphPad Software, San Diego, CA, USA) and are represented as IC50 of the compounds calculated using the cells treated with the solvent alone as a control.
# 22Rv1 cells [1] = assay: MTT assay, 22Rv1 cells; format: cell-based, human; settings: Homo sapiens, 22Rv1; prostate cancer cells; 48 h of treatment; mean ± SD
# Experimental: as §1, §2, §3
# LNCaP cells = assay: MTT assay, LNCaP cells; format: cell-based, human; settings: Homo sapiens, LNCaP; prostate cancer cells; 48 h of treatment; mean ± SD
# Experimental: as §1, §2, §3
# PC-3 cells = assay: MTT assay, PC-3 cells; format: cell-based, human; settings: Homo sapiens, PC-3; prostate cancer cells; 48 h of treatment; mean ± SD
# Experimental: as §1, §2, §3
# PNT2 cells = assay: MTT assay, PNT2 cells; format: cell-based, human; settings: Homo sapiens, PNT2; non-cancer cells; 48 h of treatment; mean ± SD
# Experimental: as §1, §2, §3
# 22Rv1 cells [2] = assay: DNA fragmentation (apoptosis, sub-G1), flow cytometry with PI staining; format: cell-based, human; settings: treated at IC50 (MTT assay) for 48 h, mean ± SD
# Experimental: (§4) The effects on cell cycle progression and DNA fragmentation were analyzed by flow cytometry using PI staining, as described before. Cells (2 × 10^5 cells/well) were pre-incubated overnight in 6-well plates and then treated with the investigated drugs in fresh culture media (2 mL/well) for 48 h. Cells were harvested by trypsinization, fixed in 70% EtOH, stained with PI solution and analyzed by FACS Calibur (BD Bioscience, San Jose, CA, USA). The results were quantified using BD Bioscience Cell Quest Pro v.5.2.1. software (BD Bioscience). The cells appearing as a sub-G1 population (containing fragmented DNA) were considered to be apoptotic.
# DU145 cells = assay: MTT assay, DU145 cells; format: cell-based, human; settings: Homo sapiens, DU-145; prostate cancer cells; 48 h of treatment; mean ± SD
# Experimental: as §1, §2, §3
# 22Rv1 cells [3] = assay: Trypan blue-based viability assay; format: cell-based, human; settings: Homo sapiens, 48 h of treatment, mean ± SD, read-out: IC50, trypan blue staining assay
# Experimental: The effect of the drugs on cell viability in terms of cellular membrane integrity was evaluated by the trypan blue exclusion assay as described before. In brief, cells (0.2 × 10^6 cells/well) were seeded in 6-well plates and incubated overnight, and the media was replaced with fresh media (1 mL/well) containing drugs at indicated concentrations. After treatment for 48 h, the cells were harvested by trypsinization, stained with trypan blue and the viability was measured using an automatic Beckman Coulter Vi-CELL (Beckman Coulter, Krefeld, Germany). Trypan blue-positive cells were assumed to have damaged cellular membrane (i.e., dead), whereas trypan blue-negative cells were considered to have an intact cellular membrane (i.e., alive).
# [4] = test system: prostate cancer cell lines (PC-3, 22Rv1, DU145 and LNCaP); assay: MTT assay, mean over four prostate cancer cell lines; format: cell-based; settings: Homo sapiens; mean of MTT IC50 in PC-3, 22Rv1, DU145 and LNCaP; from Table S1 values; read-out: mean IC50 in cancer cells
# Experimental: as §3, with “Next, SAR analysis was performed to identify the structural elements that are beneficial for anticancer activity of the fascaplysin-related molecules. Considering the complex and heterogeneous nature of tumors even within the same patient, we used calculated mean IC50 values of each drug in all prostate cancer cells for further analysis (Figure 2A). To identify the drug candidates with the highest therapeutic potential, the selectivity index (SI) was calculated as mean IC50 in non-cancer cells versus mean IC50 in cancer cells (Figure 2B), or as a mean IC50 in non-cancer (MRC-9 and HEK293) cells versus mean IC50 in prostate cells (cancer PC-3, 22Rv1, DU145, LNCaP and non-cancer PNT2 cells) (Figure 2C). Finally, to estimate the effects on cellular metabolism, we compared the activity evaluated by using trypan blue assay versus MTT assay (Figure 2D). Effect” for “Effect”, “2-4” for “2–4”, “F200PRO” left out
# 22Rv1 cells [5] = assay: Cell cycle progression, flow cytometry with PI staining; format: cell-based, human; settings: treated at IC50 (MTT assay) for 48 h
# Experimental: as §4
# [6] = test system: non-cancer cell lines versus cancer cell lines; assay: Selectivity index from MTT IC50s; format: cell-based, human; settings: for Selectivity index, IC50 (non-prostate) / IC50 (prostate): mean IC50 MRC-9 and HEK-293 versus mean IC50 prostate cancer cell lines plus PNT2; for Selectivity index, IC50 (non-prostate) / IC50 (prostate) / Selectivity index, IC50 (non-cancer) / IC50 (cancer): MTT; for Selectivity index, IC50 (non-cancer) / IC50 (cancer): mean IC50 non-cancer cell lines versus mean IC50 cancer cell lines
# Experimental: as §3, with “Next, SAR analysis was performed to identify the structural elements that are beneficial for anticancer activity of the fascaplysin-related molecules. Considering the complex and heterogeneous nature of tumors even within the same patient, we used calculated mean IC50 values of each drug in all prostate cancer cells for further analysis (Figure 2A). To identify the drug candidates with the highest therapeutic potential, the selectivity index (SI) was calculated as mean IC50 in non-cancer cells versus mean IC50 in cancer cells (Figure 2B), or as a mean IC50 in non-cancer (MRC-9 and HEK293) cells versus mean IC50 in prostate cells (cancer PC-3, 22Rv1, DU145, LNCaP and non-cancer PNT2 cells) (Figure 2C). Finally, to estimate the effects on cellular metabolism, we compared the activity evaluated by using trypan blue assay versus MTT assay (Figure 2D). Effect” for “Effect”, “2-4” for “2–4”, “F200PRO” left out
# [7] = test system: double-stranded calf thymus DNA; assay: Thiazole orange displacement (DNA intercalation) assay; format: binding; settings: 1 µM calf thymus DNA base pairs, 2 µM thiazole orange; 7 min at room temperature; mean ± SD
# Experimental: DNA intercalation activity of the compounds was calculated as an ability to displace thiazole orange (TO) from the double-stranded DNA. For this experiment, a mixture (100 µL) containing 1 µM of double-stranded calf thymus DNA (recalculated as a concentration of base pairs) and 2 µM of thiazole orange (TO) solved in water was prepared. Then, the investigated compounds were added up to final concentrations of 0.39–25 µM; DMSO concentration in the samples was <0.02%. Propidium iodide (PI, positive control) was added up to final concentrations of 0.039–2.5 uM. After 7 min of incubation at room temperature, TO fluorescence was monitored using a multimodal plate reader TECAN Spark (Tecan Group Ltd., Männedorf Switzerland) at the excitation λ = 480 nm; fluorescence was recorded at λ = 530 nm. The bandwidth was 10 nm. The concentration of the drug that caused a decrease in TO fluorescence by 50% (EC50) was determined by approximating the experimental data using a non-linear regression algorithm and calculated using the GraphPad Prism software v.9.1.1 (GraphPad Software, San Diego, CA, USA).
# MRC-9 cells = assay: MTT assay, MRC-9 cells; format: cell-based, human; settings: Homo sapiens, MRC9; non-cancer cells; 48 h of treatment; mean ± SD
# Experimental: as §1, §2, §3
# VEGFR2 = test system: VEGFR2; design: method as in PMID 28961193; settings: cited from earlier work
# TRKA = test system: TRKA; design: method as in PMID 28961193; settings: cited from earlier work
# VEGFR3 = test system: VEGFR3; design: method as in PMID 28961193; settings: cited from earlier work
# tumor growth = test system: tumor growth; design: method as in PMID 28961193, PMID 25561006; settings: various in vivo models; cited from earlier work
IC50 (22Rv1 cells [1]),IC50 (LNCaP cells),IC50 (PC-3 cells),% of sub-G1 apoptotic cells (at IC50) (22Rv1 cells [2]),IC50 (DU145 cells),IC50 (22Rv1 cells [3]),IC50 [4],Cell cycle arrest (at IC50) (22Rv1 cells [5]),EC50 [7],SMILES,IC50 (HEK-293 cells),IC50 (PNT2 cells),"Selectivity index, IC50 (non-prostate) / IC50 (prostate) [6]","Selectivity index, IC50 (non-cancer) / IC50 (cancer) [6]",IC50 (MRC-9 cells),"Selectivity index (SI), for Figure 2B,C ([6]; both SI definitions (Figure 2B,C))",concentration inhibiting VEGFR2 (VEGFR2),concentration inhibiting TRKA (TRKA),concentration inhibiting VEGFR3 (VEGFR3),dose at which tumor growth is inhibited (tumor growth)
209 ± 72 nM,361 ± 85 nM,1390 ± 700 nM,28.7±3.49%,334 ± 34 nM,259 ± 94 nM,570 nM,No,690 ± 20 nM,"O=C1c2ccc(Br)cc2-[n+]2ccc3c([nH]c4cccc(Br)c43)c21.[Cl-] [Compound 9, 12,13-dihydro-3,8-dibromo-13-oxopyrido[1,2-a:3,4-b’]diindol-5-ium chloride]",580 ± 99 nM,369 ± 24 nM,2.48,1.75,2070 ± 470 nM,,,,,
690 ± 19 nM,593 ± 91 nM,7280 ± 480 nM,3.83±0.442%,1510 ± 56 nM,5140 ± 220 nM,2520 nM,No,4380 ± 60 nM,"O=C1c2ccc(Br)cc2-[n+]2ccc3c([nH]c4cc(Br)ccc43)c21 [Compound 8, 3,10-dibromofascaplysin]",540 ± 48 nM,3490 ± 1010 nM,,,> 50000 nM,7–9,,,,
1070 ± 94 nM,1410 ± 89 nM,2780 ± 370 nM,32.38±1%,2240 ± 180 nM,2790 ± 223 nM,1880 nM,No,> 25000 nM,"O=C1c2ccccc2-[n+]2ccc3c([nH]c4ccc(Br)cc43)c21.[Cl-] [Compound 6, 12,13-dihydro-9-bromo-13-oxopyrido[1,2-a:3,4-b’]diindol-5-ium chloride]",2540 ± 1140 nM,2450 ± 950 nM,4.54,3.65,15500 ± 2500 nM,,,,,
4150 ± 340 nM,6510 ± 2320 nM,5290 ± 132 nM,23.6±1.2%,6910 ± 650 nM,7430 ± 850 nM,5720 nM,No,,"O=C1c2cc(Br)ccc2-[n+]2ccc3c([nH]c4c(Cl)cc(Cl)cc43)c21.[Cl-] [Compound 14, 12,13-dihydro-2-bromo-9,11-dichloro-13-oxopyrido[1,2-a:3,4-b’]diindol-5-ium chloride]",2610 ± 429 nM,2750 ± 1740 nM,5.14,3.23,> 50000 nM,,,,,
156 ± 32 nM,283 ± 35 nM,429 ± 100 nM,16.4±2.47%,444 ± 95 nM,207 ± 74 nM,330 nM,No,,"O=C1c2ccccc2-[n+]2c(-c3ccccc3)cc3c([nH]c4ccccc43)c21.[Cl-] [Compound 20, 12,13-dihydro-6-phenyl-13-oxopyrido[1,2-a:3,4-b’]diindol-5-ium chloride]",412 ± 66 nM,440 ± 75 nM,1.82,1.74,860 ± 111 nM,,,,,

SMILES,IC50 (22Rv1 cells [1]),IC50 (LNCaP cells),IC50 (PC-3 cells),% of sub-G1 apoptotic cells (at IC50) (22Rv1 cells [2]),IC50 (DU145 cells),IC50 (22Rv1 cells [3]),IC50 [4],Cell cycle arrest (at IC50) (22Rv1 cells [5]),EC50 [7],IC50 (HEK-293 cells),IC50 (PNT2 cells),"Selectivity index, IC50 (non-prostate) / IC50 (prostate) [6]","Selectivity index, IC50 (non-cancer) / IC50 (cancer) [6]",IC50 (MRC-9 cells),"Selectivity index (SI), for Figure 2B,C ([6]; both SI definitions (Figure 2B,C))",concentration inhibiting VEGFR2 (VEGFR2),concentration inhibiting TRKA (TRKA),concentration inhibiting VEGFR3 (VEGFR3),dose at which tumor growth is inhibited (tumor growth)
"O=C1c2ccccc2-[n+]2ccc3c([nH]c4ccccc43)c21 [Compound 1, fascaplysin]",,,,11.43±0.843%,,335 ± 93 nM,550 nM,G1-phase arrest,530 ± 10 nM,,,1.26,1.09,890 ± 46 nM,,lower than 3 µM,lower than 3 µM,lower than 3 µM,1 to 5 mg/kg
